According to patent US9796686B2, “Antibacterial quinazoline-4(3H)-one derivatives” (priority 2014, dated 2017):
Values after ≈ are worked out from the molar mass of the structure shown. Where a name gives a salt, the structure may show the parent alone. Read-outs that look alike come from different tables or passages of the source.

Experiments:
Assay in all cases: Bacterial growth minimal inhibitory concentration, microdilution in cation-adjusted Mueller-Hinton Broth (CLSI M7-A7)
Type in all cases: cell-based
K. pneumoniae A-651 = settings: for MIC: Klebsiella pneumoniae
Description: (§1) Minimal Inhibitory Concentrations (MICs; mg/L) were determined in cation-adjusted Mueller-Hinton Broth by a microdilution method following the description given in “Methods for Dilution Antimicrobial Susceptibility Tests for Bacteria that Grow Aerobically”, Approved standard, 7th ed., Clinical and Laboratory Standards Institute (CLSI) Document M7-A7, Wayne, Pa., U.S.A. (2006).
(§2) All Example compounds were tested against several Gram-positive and Gram-negative bacteria. […] K. pneumoniae A-651 is a multiply-resistant strain (in particular quinolone-resistant), while E. coli ATCC25922 and P. aeruginosa ATCC27853 are quinolone-sensitive strains.

E. coli ATCC25922 = settings: for MIC: Escherichia coli
Description: as §1, §2

P. aeruginosa ATCC27853 = settings: for MIC: Pseudomonas aeruginosa
Description: as §1, §2

[1] = A651, multiply-resistant strain (in particular quinolone-resistant), read-out: MIC for K. Pneumoniae A-651
[2] = ATCC25922, quinolone-sensitive strain, read-out: MIC for E. coli ATCC25922
[3] = ATCC27853, quinolone-sensitive strain, read-out: MIC for P. aeruginosa ATCC27853

SMILES	MIC (K. pneumoniae A-651; [1]) [mg/L]	MIC (E. coli ATCC25922; [2]) [mg/L]	MIC (P. aeruginosa ATCC27853; [3]) [mg/L]	other results
C[C@@](CCn1cnc2cc(C#CC#C[C@@H]3C[C@@H](O)[C@@H](O)C3)ccc2c1=O)(C(=O)NO)S(C)(=O)=O [Example 15, (R)-4-(7-(((1s,3R,4S)-3,4-dihydroxycyclopentyl)buta-1,3-diyn-1-yl)-4-oxoquinazolin-3(4H)-yl)-N-hydroxy-2-methyl-2-(methylsulfonyl)butanamide]				MIC for K. Pneumoniae A-651 (K. pneumoniae A-651; multiply-resistant strain (in particular quinolone-resistant)): 1 mg/L; MIC for E. coli ATCC25922 (E. coli ATCC25922; quinolone-sensitive strain): 1 mg/L; MIC for P. aeruginosa ATCC27853 (P. aeruginosa ATCC27853; quinolone-sensitive strain): 2 mg/L
C[C@@](CCn1cnc2cc(C#CC#C[C@@H](O)CO)ccc2c1=O)(C(=O)NO)S(C)(=O)=O [Example 10, (R)-4-(7-((R)-5,6-dihydroxyhexa-1,3-diyn-1-yl)-4-oxoquinazolin-3(4H)-yl)-N-hydroxy-2-methyl-2-(methylsulfonyl)butanamide]	8 (≈ 17.9 µM)	8 (≈ 17.9 µM)	4 (≈ 8.94 µM)	
COc1ccc(-c2ccc3c(=O)n(CCC(C)(C(=O)NO)S(C)(=O)=O)cnc3c2)cc1F (racemic) [RE5, (RS)-4-(7-(3-fluoro-4-methoxyphenyl)-4-oxoquinazolin-3(4H)-yl)-N-hydroxy-2-methyl-2-(methylsulfonyl)butanamide]	1 (≈ 2.16 µM)	0.25 (≈ 0.539 µM)	16 (≈ 34.5 µM)	
CC(C)(N)C#CC#Cc1ccc2c(=O)n(CC[C@](C)(C(=O)NO)S(C)(=O)=O)cnc2c1 [Example 7, (R)-4-(7-(5-amino-5-methylhexa-1,3-diyn-1-yl)-4-oxoquinazolin-3(4H)-yl)-N-hydroxy-2-methyl-2-(methylsulfonyl)butanamide formate]				MIC (K. pneumoniae A-651; A651, read-out: MIC for K. Pneumoniae A-651): 4 mg/L; MIC (E. coli ATCC25922; ATCC25922, read-out: MIC for E. coli ATCC25922): 1 mg/L; MIC (P. aeruginosa ATCC27853; ATCC27853, read-out: MIC for P. aeruginosa ATCC27853): 2 mg/L
C[C@@](CCn1cnc2cc(C#CC#CCC3(O)COC3)c(F)cc2c1=O)(C(=O)NO)S(C)(=O)=O [Example 35, (R)-4-(6-fluoro-7-(5-(3-hydroxyoxetan-3-yl)penta-1,3-diyn-1-yl)-4-oxoquinazolin-3(4H)-yl)-N-hydroxy-2-methyl-2-(methylsulfonyl)butanamide]	4 (≈ 8.14 µM)	4 (≈ 8.14 µM)	4 (≈ 8.14 µM)	
CC(CCn1cnc2cc(-c3ccc(OCCCN4CCOCC4)cc3)ccc2c1=O)(C(=O)NO)S(C)(=O)=O.O=CO (racemic) [RE2, (RS)-N-hydroxy-2-methyl-2-(methylsulfonyl)-4-(7-(4-(3-morpholinopropoxy)phenyl)-4-oxoquinazolin-3(4H)-yl)butanamide formate]	2	1	8	
CC(C)(O)C#CC#Cc1cc2ncn(CC[C@](C)(C(=O)NO)S(C)(=O)=O)c(=O)c2cc1F [Example 29, (R)-4-(6-fluoro-7-(5-hydroxy-5-methylhexa-1,3-diyn-1-yl)-4-oxoquinazolin-3(4H)-yl)-N-hydroxy-2-methyl-2-(methylsulfonyl)butanamide]	1 (≈ 2.16 µM)	1 (≈ 2.16 µM)	2 (≈ 4.32 µM)	
C[C@@](CCn1cnc2cc(C#CC#CC3(CO)CCC3)c(F)cc2c1=O)(C(=O)NO)S(C)(=O)=O [Example 34, (R)-4-(6-fluoro-7-((1-(hydroxymethyl)cyclobutyl)buta-1,3-diyn-1-yl)-4-oxoquinazolin-3(4H)-yl)-N-hydroxy-2-methyl-2-(methylsulfonyl)butanamide]	1 (≈ 2.04 µM)	0.25 (≈ 0.511 µM)	2 (≈ 4.09 µM)	
CC(CCn1cnc2cc(-c3ccc(OCCCN4CCOCC4)cc3F)ccc2c1=O)(C(=O)NO)S(C)(=O)=O.O=CO (racemic) [RE1, (RS)-4-(7-(2-fluoro-4-(3-morpholinopropoxy)phenyl)-4-oxoquinazolin-3(4H)-yl)-N-hydroxy-2-methyl-2-(methylsulfonyl)butanamide formate]	2	1	16	
C[C@@](CCn1cnc2cc(C#Cc3ccc([C@@H](O)CO)cc3)ccc2c1=O)(C(=O)NO)S(C)(=O)=O [Example 18, (R)-4-(7-((4((R)-1,2-dihydroxyethyl)phenyl)ethynyl)-4-oxoquinazolin-3(4H)-yl)-N-hydroxy-2-methyl-2-(methylsulfonyl)butanamide]	2 (≈ 4 µM)	0.5 (≈ 1 µM)	4 (≈ 8.01 µM)	
C[C@@](CCn1cnc2cc(C#CC#C[C@H]3C[C@@H]3CO)ccc2c1=O)(C(=O)NO)S(C)(=O)=O [Example 3, (R)-N-hydroxy-4-(7-(((1S,2S)-2-(hydroxymethyl)cyclopropyl)buta-1,3-diyn-1-yl)-4-oxoquinazolin-3(4H)-yl)-2-methyl-2-(methylsulfonyl)butanamide]	0.5 (≈ 1.09 µM)	0.125 (≈ 0.273 µM)	1 (≈ 2.19 µM)	
C[C@@](CCn1cnc2cc(C#Cc3ccc(OCCO)cc3)ccc2c1=O)(C(=O)NO)S(C)(=O)=O [Example 14, (R)-N-hydroxy-4-(7-((4-(2-hydroxyethoxy)phenyl)ethynyl)-4-oxoquinazolin-3(4H)-yl)-2-methyl-2-(methylsulfonyl)butanamide]	0.5 (≈ 1 µM)	0.25 (≈ 0.5 µM)	16 (≈ 32 µM)	

The next lines start with results.

MIC (K. pneumoniae A-651; [1]) [mg/L]	MIC (E. coli ATCC25922; [2]) [mg/L]	MIC (P. aeruginosa ATCC27853; [3]) [mg/L]	SMILES	other results
≤ 0.063	0.25 (≈ 0.577 µM)	16 (≈ 36.9 µM)	CC(CCn1cnc2cc(-c3ccccc3)c(F)cc2c1=O)(C(=O)NO)S(C)(=O)=O (racemic) [RE9, (RS)-4-(6-fluoro-4-oxo-7-phenylquinazolin-3(4H)-yl)-N-hydroxy-2-methyl-2-(methylsulfonyl)butanamide]	
0.5 (≈ 1.05 µM)	0.25 (≈ 0.526 µM)	0.5 (≈ 1.05 µM)	C[C@@](CCn1cnc2cc(C#CC#C[C@H]3C[C@]3(F)CO)ccc2c1=O)(C(=O)NO)S(C)(=O)=O (relative stereo) [Example 33, (R)-4-(7-(((1R*,2R*)-2-fluoro-2-(hydroxymethyl)cyclopropyl)buta-1,3-diyn-1-yl)-4-oxoquinazolin-3(4H)-yl)-N-hydroxy-2-methyl-2-(methylsulfonyl)butanamide]	
0.25 (≈ 0.526 µM)	0.125 (≈ 0.263 µM)	1 (≈ 2.1 µM)	C[C@@](CCn1cnc2cc(C#CC#C[C@H]3C[C@@H]3CO)c(F)cc2c1=O)(C(=O)NO)S(C)(=O)=O [Example 9, (R)-4-(6-fluoro-7-(((1S,2S)-2-(hydroxymethyl)cyclopropyl)buta-1,3-diyn-1-yl)-4-oxoquinazolin-3(4H)-yl)-N-hydroxy-2-methyl-2-(methylsulfonyl)butanamide]	
0.25 (≈ 0.53 µM)	0.25 (≈ 0.53 µM)	1 (≈ 2.12 µM)	C[C@]1(CO)C[C@@H]1C#CC#Cc1ccc2c(=O)n(CC[C@](C)(C(=O)NO)S(C)(=O)=O)cnc2c1 [Example 24, (R)-N-hydroxy-4-(7-(((1R,2S)-2-(hydroxymethyl)-2-methylcyclopropyl)buta-1,3-diyn-1-yl)-4-oxoquinazolin-3(4H)-yl)-2-methyl-2-(methylsulfonyl)butanamide]	
0.25 (≈ 0.526 µM)	≤ 0.063	1 (≈ 2.1 µM)	C[C@@](CCn1cnc2cc(C#CC#C[C@@H]3C[C@H]3CO)c(F)cc2c1=O)(C(=O)NO)S(C)(=O)=O [Example 11, (R)-4-(6-fluoro-7-(((1R,2R)-2-(hydroxymethyl)cyclopropyl)buta-1,3-diyn-1-yl)-4-oxoquinazolin-3(4H)-yl)-N-hydroxy-2-methyl-2-(methylsulfonyl)butanamide]	
0.25 (≈ 0.517 µM)	0.125 (≈ 0.259 µM)	0.5 (≈ 1.03 µM)	C[C@@](CCn1cnc2cc(C#CC#CC34CC(CO)(C3)C4)ccc2c1=O)(C(=O)NO)S(C)(=O)=O [Example 13, (R)-N-hydroxy-4-(7-((3-(hydroxymethyl)bicyclo[1.1.1]pentan-1-yl)buta-1,3-diyn-1-yl)-4-oxoquinazolin-3(4H)-yl)-2-methyl-2-(methylsulfonyl)butanamide]	
